Source: article PMC11429051, “The Effect of Maturity Stage on Polyphenolic Composition, Antioxidant and Anti-Tyrosinase Activities of Ficus rubiginosa Desf. ex Vent. Extracts” (Antioxidants, 2024)
≈ marks a conversion by molar mass, not a printed value.

Biological target: T1, mushroom tyrosinase
T1 construct: gene PPO3
Assay: L-DOPA oxidation, absorbance at […] nm after […] min
Assay type: biochemical
Settings: 0.1 M L-DOPA solution (300 µL in 610 µL assay), 0.05 M phosphate pH 6.8, room temperature, 10 min preincubation

IC50: 5.38 µg/mL (≈ 8.81 µM)
SMILES: C[C@@H]1O[C@@H](OC[C@H]2O[C@@H](Oc3c(-c4ccc(O)c(O)c4)oc4cc(O)cc(O)c4c3=O)[C@H](O)[C@@H](O)[C@@H]2O)[C@H](O)[C@H](O)[C@H]1O [rutin]
